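Tested at 5 concentrations; 48 h exposure; 96-well plates; endpoints linearly interpolated, else capped at highest concentration. Definition used: TGI = concentration required for complete inhibition of growth.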
Assays:
Test in all cases: NCI anticancer screen, dose series, 48 h
786-0 renal = system: 786-0 renal
A498 renal = system: A498 renal
A549 NSCLC = system: A549 NSCLC
ACHN renal = system: ACHN renal
BT-549 breast = system: BT-549 breast
CAKI-1 renal = system: CAKI-1 renal
CCRF-CEM leukemia = system: CCRF-CEM leukemia
COLO 205 colon = system: COLO 205 colon
DU-145 prostate = system: DU-145 prostate
EKVX NSCLC = system: EKVX NSCLC
HCC-2998 colon = system: HCC-2998 colon
HCT-116 colon = system: HCT-116 colon
HCT-15 colon = system: HCT-15 colon
HOP-62 NSCLC = system: HOP-62 NSCLC
HOP-92 NSCLC = system: HOP-92 NSCLC
HS 578T breast = system: HS 578T breast
HT29 colon = system: HT29 colon
IGROV1 ovarian = system: IGROV1 ovarian
KM12 colon = system: KM12 colon
LOX IMVI melanoma = system: LOX IMVI melanoma
M14 melanoma = system: M14 melanoma
MDA-MB-231 breast = system: MDA-MB-231 breast
MDA-N = system: MDA-N
MOLT-4 leukemia = system: MOLT-4 leukemia
NCI-H226 lung = system: NCI-H226 lung
NCI-H23 lung = system: NCI-H23 lung
NCI-H460 lung = system: NCI-H460 lung
NCI/ADR-RES ovarian = system: NCI/ADR-RES ovarian
OVCAR-3 ovarian = system: OVCAR-3 ovarian
OVCAR-4 ovarian = system: OVCAR-4 ovarian
OVCAR-5 ovarian = system: OVCAR-5 ovarian
OVCAR-8 ovarian = system: OVCAR-8 ovarian
PC-3 prostate = system: PC-3 prostate
RPMI-8226 leukemia = system: RPMI-8226 leukemia
RXF 393 renal = system: RXF 393 renal
SF-268 CNS = system: SF-268 CNS
SF-295 CNS = system: SF-295 CNS
SF-539 CNS = system: SF-539 CNS
SK-MEL-28 melanoma = system: SK-MEL-28 melanoma
SK-MEL-5 melanoma = system: SK-MEL-5 melanoma
SK-OV-3 ovarian = system: SK-OV-3 ovarian
SN12C renal = system: SN12C renal
SNB-19 CNS = system: SNB-19 CNS
SNB-75 CNS = system: SNB-75 CNS
SR leukemia = system: SR leukemia
SW-620 colon = system: SW-620 colon
T-47D breast = system: T-47D breast
TK-10 renal = system: TK-10 renal
U251 CNS = system: U251 CNS
UACC-257 melanoma = system: UACC-257 melanoma
UACC-62 melanoma = system: UACC-62 melanoma
UO-31 renal = system: UO-31 renal

CCCCOCCOCCOC1=C(Cl)C(=O)c2c(O)ccc(O)c2C1=O
TGI (786-0 renal): 3400 nM | TGI (A498 renal): 4950 nM | TGI (A549 NSCLC): 4140 nM | TGI (ACHN renal): 3110 nM | TGI (BT-549 breast): 2720 nM | TGI (CAKI-1 renal): 388 nM | TGI (CCRF-CEM leukemia): 555 nM | TGI (COLO 205 colon): 756 nM | TGI (DU-145 prostate): 3160 nM | TGI (EKVX NSCLC): 6960 nM | TGI (HCC-2998 colon): 4790 nM | TGI (HCT-116 colon): 1410 nM | TGI (HCT-15 colon): 1110 nM | TGI (HOP-62 NSCLC): 2530 nM | TGI (HOP-92 NSCLC): 437 nM | TGI (HS 578T breast): 5860 nM | TGI (HT29 colon): 1250 nM | TGI (IGROV1 ovarian): 2780 nM | TGI (KM12 colon): 3600 nM | TGI (LOX IMVI melanoma): 1750 nM | TGI (M14 melanoma): 317 nM | TGI (MDA-MB-231 breast): 1320 nM | TGI (MDA-N): 2030 nM | TGI (MOLT-4 leukemia): 100 nM | TGI (NCI-H226 lung): 3210 nM | TGI (NCI-H23 lung): 2920 nM | TGI (NCI-H460 lung): 4400 nM | TGI (NCI/ADR-RES ovarian): 7490 nM | TGI (OVCAR-3 ovarian): 2080 nM | TGI (OVCAR-4 ovarian): 1380 nM | TGI (OVCAR-5 ovarian): 5330 nM | TGI (OVCAR-8 ovarian): 7430 nM | TGI (PC-3 prostate): 3190 nM | TGI (RPMI-8226 leukemia): 1320 nM | TGI (RXF 393 renal): 2050 nM | TGI (SF-268 CNS): 2110 nM | TGI (SF-295 CNS): 3130 nM | TGI (SF-539 CNS): 2840 nM | TGI (SK-MEL-28 melanoma): 1410 nM | TGI (SK-MEL-5 melanoma): 1530 nM | TGI (SK-OV-3 ovarian): 14800 nM | TGI (SN12C renal): 2960 nM | TGI (SNB-19 CNS): 3200 nM | TGI (SNB-75 CNS): 1250 nM | TGI (SR leukemia): 117 nM | TGI (SW-620 colon): 1750 nM | TGI (T-47D breast): 2520 nM | TGI (TK-10 renal): 2630 nM | TGI (U251 CNS): 6720 nM | TGI (UACC-257 melanoma): 2600 nM | TGI (UACC-62 melanoma): 3470 nM | TGI (UO-31 renal): 2680 nM

From PubChem BioAssay (NCI)
